Measured values published in US20180086744A1, “COMBINATION TREATMENT OF CANCER COMPRISING EGFR/HER2 INHIBITORS” (Boehringer Ingelheim International GmbH, priority 2005, published 2018).

Experiments:
[1] = test system: SKOV-3 cells; assay: anchorage independent SKOV-3 cell assay (soft agar); assay type: cell-based, human
Description: SKOV-3 cells are grown on a soft agar layer in the presence of 2 nM BIBW2992BS or three concentrations of 5FU (200 nM, 400 nM, 800 nM) or in combination of both.

[2] = test system: cell lines expressing double mutant EGF receptors; settings: cited from earlier work
[3] = test system: double mutant EGF receptors; settings: cell lines expressing double mutant EGF receptors; cited from earlier work

`CN(C)C/C=C/C(=O)Nc1cc2c(Nc3ccc(F)c(Cl)c3)ncnc2cc1O[C@H]1CCOC1` [BIBW2992, 4-[(3-chloro-4-fluorophenyl)amino]-6-{[4-(N,N-dimethylamino)-1-oxo-2-buten-1-yl]amino}-7-((S)-tetrahydrofuran-3-yloxy)-quinazoline] showed an inhibition at 0.002 µM ([1]; Homo sapiens, SK-OV-3, 2 nM, read-out: inhibition of cell growth) of 20%.
For `CC#CC(=O)Nc1ccc2ncnc(Nc3cccc(Br)c3)c2c1` [CL 387,785], the inhibition of proliferation [2] is given as “able to inhibit” and the “inhibition of EGF-induced EGFR phosphorylation” value [3] is given as “able to inhibit”.
With `O=c1[nH]cc(F)c(=O)[nH]1` [5FU, 5-fluorouracile] the “inhibition of cell growth” value ([1]; 200 nM) was “No inhibition”, the “inhibition of cell growth” value ([1]; 400 nM) was “No inhibition” and the inhibition at 0.8 µM ([1]; Homo sapiens, SK-OV-3, 800 nM, read-out: inhibition of cell growth) was 13%.
